Read-outs that look alike come from different tables or passages of the source.
Test: Solubility test in biological media (FaSSIF, FeSSIF, SGF) and water, 37° C.
Format: physicochemical
Conditions: for Status (24 h) / solubility at 24 h / pH 24 hours: 37° C.; for Status (24 h): about 4 mg in 2 mL; for solubility at 24 h: salt forms converted to salt concentrations, read-out: Solubility (mg/mL) 24 hours; for pH 24 hours: supernatant; for pH 0 hour: initial
Procedure: Step 1: Preparation of Control Solutions (0.2 mg/mL, calculated by free base)
2 mg the crystal form B of the compound represented by formula (I) (or 2.4 mg the crystal form E of the compound represented by formula (II)) as a control was precisely weighed and placed into a 40 mL glass vial, and a diluent (10 mL) was precisely added. The reaction solution was subjected to ultrasonic treatment for 20 min to sufficiently dissolve, then cooled to room temperature and shaked well. Two control solutions (STD #1, STD #2) were formulated in accordance with this method.
Step 2: Preparation of Linear Solutions
The control solution STD #1 of the crystal form B of the compound represented by formula (I) was 1×, 10×, 100×, 1000× and 2000× (free base LOQ) diluted, and designated as the linear solutions L1, L2, L3, L4 and L5; the control solution STD #1 of the crystal form E of the compound represented by formula (II) was 1×, 10×, 100× and 1000× (methanesulfonate LOQ) diluted, and designated as the linear solutions L1, L2, L3, L4.
Step 3: Solubility Test of the crystal form B of the compound represented by formula (I), the crystal form G of the compound represented by formula (III) and the crystal form E of the compound represented by formula (II) in biological media and water
4 samples (about 4 mg) of each of the crystal form B of the compound represented by formula (I), the crystal form E of the compound represented by formula (II), and the crystal form G of the compound represented by formula (III) were added into 12 glass vials (4 mL), respectively, and then 2 mL different biological media (FaSSIF, FeSSIF, SGF) and water were added into each compound respectively, then mixed homogeneously to form a suspension. The suspension was detected for its initial pH value. A magnet was added into the suspension, and placed on a magnetic stirring heater for stirring (at a temperature of 37° C., in dark). After stirring for 24 h, a sample was taken. The taken sample was quickly centrifuged, and the residual solid was detected by XRPD. The supernatant was detected for its pH value and diluted with a diluent into appropriate multiple, then measured with HPLC for its concentration.
FaSSIF: 1. 0.042 g sodium hydroxide, 0.3438 g sodium dihydrogen phosphate and 0.6186 g sodium chloride were weighed, added into 90 mL purified water, and homogeneously mixed, then, the mixture was adjusted with 1 N hydrochloric acid or 1 N sodium hydroxide to pH=6.5, and diluted into a constant volume of 100 mL with purified water; 2. 50 mL of the buffer described above was taken, and 0.224 g commercially available powder (Biorelevant.com) of FaSSIF/FeSSIF/FaSSGF was added thereto, the mixture was stirred to dissolve, and diluted with purified water to a constant volume of 100 mL.
FeSSIF: 1. 0.404 g sodium hydroxide, 0.865 g glacial acetic acid, and 1.1874 g sodium chloride were weighed, added into 90 mL purified water, and homogeneously mixed, then, the mixture was adjusted with 1 N hydrochloric acid or 1 N sodium hydroxide to pH=5.0, and diluted with purified water to a constant volume of 100 mL, 2. 50 mL of the buffer described above was taken, and 1.12 g commercially available powder (Biorelevant.com) of FaSSIF/FeSSIF/FaSSGF was added thereto, the mixture was stirred to dissolve, and diluted with purified water to a constant volume of 100 mL.
FaSSGF (SGF): 1. 0.2 g sodium chloride was weighed, added into 90 mL purified water, and mixed homogeneously, the mixture was adjusted with 1 N hydrochloric acid to pH=1.8, and diluted with purified water to a constant volume of 100 mL, and stood at room temperature.

[1] = SGF (FaSSGF), pH 1.8, simulated gastric fluid, thermodynamic from solid, SGF
[2] = pH 5, thermodynamic from solid, FeSSIF
[3] = pH 6.5, thermodynamic from solid, FaSSIF
[4] = thermodynamic from solid, Water

| Status (24 h) (FaSSIF) | solubility in three types of biological media, conclusion in words (FaSSIF, FeSSIF, SGF) | Status (24 h) (FeSSIF) | solubility at 24 h [1] [mg/mL] | Status (24 h) (SGF) | Status (24 h) (Water) | solubility at 24 h [2] [mg/mL] | solubility at 24 h [3] [mg/mL] | pH 24 hours (FaSSIF) | pH 24 hours (FeSSIF) | pH 24 hours (SGF) | pH 24 hours (Water) | pH 0 hour (suspension in FaSSIF) | pH 0 hour (suspension in FeSSIF) | pH 0 hour (suspension in SGF) | pH 0 hour (suspension in Water) | solubility at 24 h [4] [mg/mL] | SMILES |
| --- | --- | --- | --- | --- | --- | --- | --- | --- | --- | --- | --- | --- | --- | --- | --- | --- | --- |
| Suspension | good solubility | Suspension | 0.014 | Suspension | Suspension | 0.284 | 0.041 | 7.10 | 5.18 | 2.48 | 7.30 | 7.04 | 4.98 | 2.21 | 8.34 | 0.007 | C=CC(=O)N[C@H]1COC[C@H]1Nc1ncc(/C=C(\F)c2c(Cl)c(OC)cc(OC)c2Cl)cn1 [Crystal Form B] |
| Suspension | good solubility | Suspension | 0.041 | Suspension | Suspension | 0.358 | 0.036 | 6.81 | 5.11 | 2.31 | 2.74 | 6.97 | 4.92 | 2.17 | 3.50 | 0.1 | C=CC(=O)N[C@H]1COC[C@H]1Nc1ncc(/C=C(\F)c2c(Cl)c(OC)cc(OC)c2Cl)cn1.CS(=O)(=O)O [Crystal Form E] |

Source: US11440903B2, “Salt form and crystal form of compound as FGFR4 inhibitor and preparation method thereof” (GUANGDONG ZHONGSHENG PHARMACEUTICAL CO., LTD, priority 2017, dated 2022)
